Assay results: patent US6540988B1, “Method of reducing or preventing malodour” (Quest International B.V., priority 1998, dated 2003)

System: bacterial production of odoriferous steroids
Test: sub-lethal inhibition of the bacterial production of odoriferous steroids
Type: cell-based

CC(C)(C)NC(=O)[C@H]1CC[C@H]2[C@@H]3CC[C@H]4NC(=O)C=C[C@]4(C)[C@H]3CC[C@]12C [finasteride] was tested, and the “sub-lethally inhibiting the bacterial production of odoriferous steroids” value was “incapable of sub-lethally inhibiting”.
